Columns and labels:
[1] = tested on: isolated guineapig auricle; assay: Aconitine-induced arrhythmia in isolated guineapig auricle; conditions: aconitine 15 ng/ml
Method: Isolated guineapig auricle was prepared after Burn J H (1952). Aconitine (15 ng/ml) when added, set up arrhythmia within (40±5) mins. This novel compound (5 ng/ml) could revert arrhythmia to normal within (45±4.2) mins. The normal functioning state was maintained, observed up to 6 hrs. Again, arrhythmia was set in isolated auricle with 2.25 mM CaCl2. Arrhythmia was reverted to normal with the novel compound (5 ng/ml) within (30±3.36) mins of observation.

male Wister albino rats = assay: Electrocardiograph studies (hypodynamic heart), aconitine-induced arrhythmia in anaesthetized rats; assay type: in vivo; conditions: aconitine 50 μg/100 g infused through the jugular vein
Method: Electrocardiograph studies were conducted on urethane (1.75 g/kg, i.p) anaesthetized male Wister albino rats (150±10 g). Recordings were obtained in lead II. Aconitine (50 μg/100 g) was infused through the jugular vein and arrhythmia was induced within 30±5 mins.

## CCN1C[C@]2(COC)[C@H](O)C[C@H](OC)[C@@]34[C@@H]5C[C@@]6(O)[C@H](OC(=O)c7ccccc7)[C@@H]5[C@@](OC(C)=O)([C@@H]([C@H](OC)[C@H]23)[C@@H]14)[C@@H](O)[C@@H]6OC [Aconitine]
[1]
  time to set up arrhythmia: ≤ 40 ± 5 min
Male Wister albino rats
  time to induction of arrhythmia: ≤ 30 ± 5 min
